Measured values published in patent publication EP0152799A1, “Compounds having peripheral calcium antagonist, anticonvulsive and eumetabolic activity, processes for the preparation thereof and pharmaceutical compositions containing them” (PULITZER ITALIANA S.p.A., priority 1984, dated 1985).

Experiments:
cerebral district = assay: Cerebral perfusion in the rabbit (cerebral vasodilative activity); type: in vivo; conditions: 0.9 uM i.a.; for Area mm^2 / Difference in pressure / Δ: perfusion of the cerebral district
Experimental: The cerebral vasodilative activity of PU 122 in comparison with Flunarizine was tested by the method of the cerebral perfusion in the rabbit according to the procedure of Von P. Vaupel e H. Hutten (1980), by measurement of the decrease of the peripheral resistances in the cerebral district.
Said changement was determined by means of a transducer, by measuring the hematic pressure at the cerebral level and scoring the lasting of action of the compound under test.
The two test compounds were administered by intraarterial route at the dosage of 0.9 uM, in a volume of 0.2 ml for each animal.

Rat hind quarters = Rat hind quarters perfused with hyperkaliemic tyrode (vasodilative activity); conditions: 5 x 10^-5 M; for Perfusion pressure after 10' / Perfusion pressure basal: hyperkaliemic tyrode; for Perfusion pressure Δ: basal minus after 10'
From the text: The vasodilative activity of PU 122 in comparison with Flunarizine was further evaluated according to the procedure described by F.N. Fastier and F.H. Smirk, (J. Pharm. Exp. Therap. 89, 256-270; […]), by measuring the antagonist action of the test compound against hyperkaliemia induced vasoconstric- tion.
The compounds under test were used at 5.10^-5 M concentration.

[1] = test system: human platelet rich plasma (PRP); assay: Platelet aggregation induced by ADP; type: cell-based; conditions: compared with acetylsalicylic acid
Experimental: The inhibitory effect on platelet aggregation induced BY ADP on human platelet rich plasma (PRP) was evaluated for PU 122 in comparison with acetylsalicy lie acid, according to the procedure described by G.V.R. Born (Nature, 194, 927; 1962).

rat brain synaptosomes = assay: 45 Ca uptake in synaptosomial preparations (Ca antagonist activity); type: biochemical; conditions: concentration not given

Compound | Lasting of the effect (cerebral district) [min] | Area mm^2 (cerebral district) [mm^2] | Difference in pressure (cerebral district) | Δ (cerebral district) | Perfusion pressure after 10' (Rat hind quarters) | Perfusion pressure Δ (Rat hind quarters) | Perfusion pressure basal (Rat hind quarters) | IC50 platelet antiaggregating activity [1] | Ca antagonist activity (effect on 45 Ca uptake) (rat brain synaptosomes) [%]
Fc1ccc(C(c2ccc(F)cc2)N2CCN(C/C=C/c3ccccc3)CC2)cc1 [Flunarizine, reference compound] | 12.50 | 314.2 | 10.25 | 25.12 | 95.00 | 80.00 | 175.00 |  | 
COc1ccc(C=CCN2CCN(C(c3ccc(F)cc3)c3ccc(F)cc3)CC2)cc1OC.Cl.Cl [PU 122, 1-(4,4'-Difluorobenzhydryl)-4-(3,4-dimethoxycinnamyl)piperazine dihydrochloride] | 16.70 | 487.14 | 18.75 | 29.17 | 90.00 | 105.00 | 195.00 | substan tially better than that of acetylsalicylic acid | -16.4
